# Test results as given in US6699463B2, “Photostable cationic organic sunscreen compounds with antioxidant properties and compositions obtained therefrom” (EM Industries, priority 2002, dated 2004).
# Assays:
# [1] = Solubility in water / aqueous-ethanolic solution; assay type: physicochemical; conditions: for Solubility in water: water / aqueous solution
# [2] = Chelating property: free coordination sites in Cu2+-antioxidant complex, UV spectrophotometric azide method; assay type: physicochemical
# Method: (§1) Iron-catalyzed formation of a hydroxyl radical from a superoxide anion radical and hydrogen peroxide requires the availability of at least one iron coordination site that is either empty or occupied by a readily dissociable ligand, such as water. […] Martell et al, 1957). The results are recorded in Tables 1 and 2. [table]
# [3] = Chelating property: free coordination sites in Fe3+-antioxidant complex, UV spectrophotometric azide method; assay type: physicochemical
# Method: as §1
# [4] = DPPH test method (percent reducing activity, antioxidant activity); assay type: biochemical; conditions: for IC 50%: DPPH reducing activity; for Reductive activity at 30 μg/ml: DPPH, absorbance at 517 nm after 20 minutes
# Method: A DPPH concentrate (2.5×) of 25 mg of 1,1-Diphenyl-2-Picyrl-Hydrazyl ACS#1898-66-4 (Sigma #D-9132, lot 99H3601) dissolved in 250 mL ethanol (USP), is prepared fresh on the measurement date. A DPPH working solution is then prepared by diluting 100 mL of this concentrate to a final volume of 250 mL (100 μM/mL). A blank 13×100 mm borosilicate glass screw top tube of ethanol (USP) is used to zero the spectrometer (Milton Roy, Spectronic 20+) at 517 nm and a control tube of DPPH working solution is measured under identical conditions, and taken as 0% activity. Aliquots of the 0.25% & 0.5% (RT & 45° C.) test solution are added to tubes followed by the rapid addition of 4 mL DPPH working solution then rapidly capped and mixed. After 20 minutes, the absorbance of each sample is read at 517 nm.
# The percent reducing activity (%RA) is calculated using the following equation: [formula]
# Where A(0) is the absorbance value of the DPPH working solution at 517 nm zeroed against an ethanol blank and A(20) is the absorbance at 517 nm, 20 minutes after combining the antioxidant with the DPPH working solution.
# The concentration of antioxidant (mg/ml) in the final assay mixture is calculated based on the dilution of respective aliquots of each compound in the final assay volume and %RA tabulated and plotted as percent activity at each concentration in the dilution series.
# [5] = Comparative photostability of thin films under UV A and UV B irradiation; assay type: physicochemical; conditions: thin film, UV A (2 MED/h) and UV B (1 MED/h), 8 h, FIGS. 1 and 2
# Method: The photostability of compounds of the present invention as well as existing commercial cationic sunscreens is tested according to the procedure described below:
# Photostability: Comparative Photostability of Example 3, Incroquat® 283 and Escalol® HP610
# Three products [Example 3 (1%), Incroquat 283 (1%) and HP610 (0.1%)] were tested for their photostability by dissolving separately in water or ethanol-water solution containing 0.1% Poly(vinylpyrrolidone-vinyl acetate) copolymer (PVP-VA S630 from ISP). Air drying on a glass plate for one hour gave a thin film, which were irradiated under UV A (2 MED/h) and UV B (1 MED/h) light separately over an 8 h period in a Q-UV Accelerated Weathering Tester. Photodegradation was calculated from the decrease in the maximum absorption of the respective products. The results are illustrated in FIGS. 1 and 2.
# [6] = UV absorption (λmax, εmax); assay type: physicochemical; conditions: for λmax: Example 3 in EtOH:water-70%:30%; for εmax: at λmax
# Method: The mass was degassed for one hour at 90-95 deg. C. under vacuum. The yield obtained is about 85%. […] A 50% solution in water was prepared for ease of handling.
# This material was prepared by following the procedure described in Example 3, except syringaldehyde was replaced with vanillin as a starting material. The product has a λmax at 334 nm (ε max 18050 cm^−1 mol^−1). A 50% solution in water was prepared for ease of handling.
Compound,maximal concentration in aqueous-ethanolic solution ([1]; aqueous-ethanolic solution (30:70%)),Solubility in water [1],IC 50% [4],Photostability relative to commercial cationic sunscreens [5],λmax [6],εmax [6],Copper chelation / water coordination of the complex [2],Iron chelation / water coordination of the complex [3],Reductive activity at 30 μg/ml [4]
CCCCCCCCCCCC[N+](C)(C)CCCNC(=O)c1ccc(N(C)C)cc1.Cc1ccc(S(=O)(=O)[O-])cc1 [Escalol® HP 610],0.25%,very poor solubility,,,,,do not have iron-or copper-chelating properties,do not have iron-or copper-chelating properties,
"Bis-N-[3(N,N-dimethylamino)propyl]-3,5-dimethoxy-4-hydroxybenzylidene Malonamide Bis Ethylsulfate [Example 3]",,highly soluble in water,118 µg/mL,much higher photostability,323 nm,"10,500 cm^−1 mol^−1",absence of any water coordination,absence of any water coordination,22%
"COc1cc(/C=C(/C(C)=O)C(=O)NCCCN(C)C)cc(OC)c1O [Example 1, N-(3-Dimethylaminopropyl)-alpha-acyl-3,5-dimethoxy-4-hydroxy Cinnamide]",,,79 µg/mL,,,,,,23%

# Now from value to compound, other results behind:
maximal concentration in aqueous-ethanolic solution ([1]; aqueous-ethanolic solution (30:70%)),Solubility in water [1],IC 50% [4],Photostability relative to commercial cationic sunscreens [5],λmax [6],εmax [6],Compound,Copper chelation / water coordination of the complex [2],Iron chelation / water coordination of the complex [3],Reductive activity at 30 μg/ml [4]
,,129 µg/mL,,,,"CCCCCCCCCCCC[N+](C)(C)CCCNC(=O)C(C#N)=Cc1cc(OC)c(O)c(OC)c1.CS(=O)(=O)[O-] [Example 2, N-(3-Dimethyl-3-dodecylaminopropyl)-alpha-cyano-3,5-dimethoxy-4-hydroxy Cinnamide Methane Sulphonate]",,,28%
,,188 µg/mL,,334 nm,18050 cm⁻¹ mol⁻¹,"Bis-N-[3(N,N-dimethylamino)propyl]-3-methoxy-4-hydroxybenzylidene Malonamide Bis Ethylsulfate [Example 4]",,,8%
